How the values were obtained:
Format in all cases: cell-based
[1] = test system: primary human fibroblasts derived from IPF patients (LL29 cells); test: Inhibition of fibrosis (αSMA) in TGF-β1 treated primary human fibroblasts from IPF patients; settings: Fibroblast, 96 h, TGF-β1 20 ng/mL, 4 days, % αSMA positive cells
Method in brief: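 IPF patient-derived LL29 lung fibroblasts in 1% FBS were treated with compound (11 points, 10 μM to 1.87 nM, 0.1% DMSO) and then 20 ng/mL TGF-β1 for 4 days at 37° C. Fraction of SYTOX-negative cells positive for αSMA was quantified by immunofluorescence imaging and normalized to TGF-β1 controls. EC50 came from non-linear regression over triplicate wells.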

[2] = test system: Wnt activity (SW480 colon carcinoma cells stably expressing the Sp5-Luc reporter gene); test: Sp5-Luc reporter gene screening assay for Wnt activity in SW480 cells; settings: Homo sapiens, 42 h incubation, luminescence
Method in brief: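 SW480 cells stably carrying an Sp5 promoter (eight TCF/LEF sites)-luciferase reporter were plated overnight in 10% FCS medium. BrightGlo luminescence was normalised to DMSO wells, and IC50 was obtained by four-parameter fit.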

[3] = test system: primary human mesenchymal stem cells (hMSCs); test: Chondrogenesis induction screen in primary human mesenchymal stem cells; settings: 6 days, chondrogenic nodules, dose range 10-2700 nM
Protocol: The above synthesized compounds were screened using primary human mesenchymal stem cells (hMSCs) to determine their ability to induce chondrogenesis (process by which cartilage is developed).
Primary human mesenchymal stem cells (hMSCs) were purchased from Lonza (Walkersville, Md.) and expanded in Mesenchymal Stem Cell Growth Media (Lonza). Cells between passage 3 and 6 were used for the experiments.
Each compound was dissolved in DMSO as a 10 mM stock and used to prepare compound source plates. Serial dilution (1:3, 6-point dose-response curves from 2700 nM to 10 nM) and compound transfer was performed using the ECHO 550 (Labcyte, Sunnyvale, Calif.) into 96-well clear bottom assay plates (Greiner Bio-One) with appropriate DMSO backfill for a final DMSO concentration of 0.03%. hMSCs were plated at 20,000 cells/well in 250 μL/well Incomplete Chondrogenic Induction Medium (Lonza; DMEM, dexamethasone, ascorbate, insulin-transferrin-selenium [ITS supplement], gentamycin-amphotericin [GA-1000], sodium pyruvate, proline and L-glutamine). TGF-β3 (10 ng/mL) was used as a positive control for differentiation while negative control wells were treated with 75 nL DMSO for normalization and calculating EC50 values. Cells were incubated at 37° C. and 5% CO2 for 6 days. To image chondrogenic nodules, the cells were fixed using 4% formaldehyde (Electron Microscopy Sciences), and stained with 2 μg/mL Rhodamine B (Sigma-Aldrich) and 20 μM Nile Red (Sigma-Aldrich) [Johnson K., et.al, A Stem Cell—Based Approach to Cartilage Repair, Science, (2012), 336(6082), 717-721]. The nodules imaged (4 images per well at 4× magnification) by excitation at 531 nm and emission at 625 nm and quantified using the CellInsight CX5 (Thermo Scientific). Number of nodules in each well was normalized to the average of 3 DMSO treated wells on the same plate using Excel (Microsoft Inc.). The normalized averages (fold change over DMSO) of 3 replicate wells for each compound concentration were calculated. Due to solubility limitations of some of the compounds, curve fitting was incomplete leading to inaccurate EC50 determinations.
Using TGF-β3 as a positive control, the concentration of test compounds required to induce equivalent levels of chondrogenesis is reported. In addition, the maximum activity of each compound and the respective dose that each compound reached maximum chondrogenesis activity is reported.

Cc1cn(-c2ccnc3[nH]c(-c4n[nH]c5ccc(-c6cncc(NC(=O)CC(C)C)c6)cc45)nc23)cn1 [Compound 184, 3-Methyl-N-(5-(3-(7-(4-methyl-1H-imidazol-1-yl)-3H-imidazo[4,5-b]pyridin-2-yl)-1H-indazol-5-yl)pyridin-3-yl)butanamide]
EC50 [1]: 0.142 nM
IC50 [2]: 2.3 nM
Conc (nM) of Max. activity [3]: 300 nM

CCCC(=O)Nc1cncc(-c2ccc3[nH]nc(-c4nc5c(-c6ccsc6)ccnc5[nH]4)c3c2)c1 [Compound 277, N-(5-(3-(7-(Thiophen-3-yl)-3H-imidazo[4,5-b]pyridin-2-yl)-1H-indazol-5-yl)pyridin-3-yl)butyramide]
EC50 [1]: 0.016 nM
IC50 [2]: 1 nM
Conc (nM) of Max. activity [3]: 30 nM

CN(C)c1cncc(-c2ccc3[nH]nc(-c4nc5c(-c6cccc(F)c6)ccnc5[nH]4)c3c2)c1 [Compound 7, 5-(3-(7-(3-Fluorophenyl)-3H-imidazo[4,5-b]pyridin-2-yl)-1H-indazol-5-yl)-N,N-dimethylpyridin-3-amine]
EC50 [1]: 0.066 nM
IC50 [2]: < 1 nM
Conc (nM) of Max. activity [3]: 100 nM

CC(C)(C)C(=O)Nc1cncc(-c2ccc3[nH]nc(-c4nc5c(-c6ccc(F)s6)ccnc5[nH]4)c3c2)c1 [Compound 346, N-(5-(3-(7-(5-Fluorothiophen-2-yl)-3H-imidazo[4,5-b]pyridin-2-yl)-1H-indazol-5-yl)pyridin-3-yl)pivalamide]
EC50 [1]: 0.009 nM
IC50 [2]: 0.4 nM
Conc (nM) of Max. activity [3]: 300 nM

Fc1cccc(-c2ccnc3[nH]c(-c4n[nH]c5ccc(-c6cn[nH]c6)cc45)nc23)c1 [Compound 1875, 2-(5-(1H-Pyrazol-4-yl)-1H-indazol-3-yl)-7-(3-fluorophenyl)-3H-imidazo[4,5-b]pyridine]
EC50 [1]: 0.009 nM
IC50 [2]: 5 nM
Conc (nM) of Max. activity [3]: 2700 nM

CCCC(=O)Nc1cncc(-c2ccc3[nH]nc(-c4nc5c(-c6cc(F)cc(CNS(C)(=O)=O)c6)ccnc5[nH]4)c3c2)c1 [Compound 433, N-(5-(3-(7-(3-Fluoro-5-(methylsulfonamidomethyl)phenyl)-3H-imidazo[4,5-b]pyridin-2-yl)-1H-indazol-5-yl)pyridin-3-yl)butyramide]
EC50 [1]: > 10 nM
IC50 [2]: 3 nM
Conc (nM) of Max. activity [3]: 2700 nM

CC(C)CC(=O)Nc1cncc(-c2ccc3[nH]nc(-c4nc5c(-c6cccc(F)c6)ccnc5[nH]4)c3c2)c1 [Compound 2, N-(5-(3-(7-(3-Fluorophenyl)-3H-imidazo[4,5-b]pyridin-2-yl)-1H-indazol-5-yl)pyridin-3-yl)-3-methylbutanamide]
EC50 [1]: 0.041 nM
IC50 [2]: 2 nM
Conc (nM) of Max. activity [3]: 30 nM

CCCCC(=O)Nc1cncc(-c2ccc3[nH]nc(-c4nc5c(-c6ccccn6)ccnc5[nH]4)c3c2)c1 [Compound 148, N-(5-(3-(7-(Pyridin-2-yl)-3H-imidazo[4,5-b]pyridin-2-yl)-1H-indazol-5-yl)pyridin-3-yl)pentanamide]
EC50 [1]: 0.085 nM
IC50 [2]: 8.1 nM
Conc (nM) of Max. activity [3]: 100 nM

CCCCC(=O)Nc1cncc(-c2ccc3[nH]nc(-c4nc5c(-c6cc(F)cc(NCCN(C)C)c6)ccnc5[nH]4)c3c2)c1 [Compound 460, N-(5-(3-(7-(3-((2-(Dimethylamino)ethyl)amino)-5-fluorophenyl)-3H-imidazo[4,5-b]pyridin-2-yl)-1H-indazol-5-yl)pyridin-3-yl)pentanamide]
EC50 [1]: 0.111 nM
IC50 [2]: 11.6 nM
Conc (nM) of Max. activity [3]: 30 nM

c1cncc(-c2ccc3[nH]nc(-c4nc5c(-c6cccnc6)ccnc5[nH]4)c3c2)c1 [Compound 82, 7-(Pyridin-3-yl)-2-(5-(pyridin-3-yl)-1H-indazol-3-yl)-3H-imidazo[4,5-b]pyridine]
EC50 [1]: 0.303 nM
IC50 [2]: 3.5 nM
Conc (nM) of Max. activity [3]: 10 nM

Oc1cncc(-c2ccc3[nH]nc(-c4nc5c(-c6cccc(F)c6)ccnc5[nH]4)c3c2)c1 [Compound 1885, 5-(3-(7-(3-Fluorophenyl)-3H-imidazo[4,5-b]pyridin-2-yl)-1H-indazol-5-yl)pyridin-3-ol]
EC50 [1]: 0.009 nM
IC50 [2]: 11 nM
Conc (nM) of Max. activity [3]: 100 nM

CC(C)Nc1cncc(-c2ccc3[nH]nc(-c4nc5c(-c6ccoc6)ccnc5[nH]4)c3c2)c1 [Compound 298, 5-(3-(7-(Furan-3-yl)-3H-imidazo[4,5-b]pyridin-2-yl)-1H-indazol-5-yl)-N-isopropylpyridin-3-amine]
EC50 [1]: 0.102 nM
IC50 [2]: 5 nM
Conc (nM) of Max. activity [3]: 30 nM

Cc1ccncc1-c1ccc2[nH]nc(-c3nc4c(-c5ccncc5)ccnc4[nH]3)c2c1 [Compound 109, 2-(5-(4-Methylpyridin-3-yl)-1H-indazol-3-yl)-7-(pyridin-4-yl)-3H-imidazo[4,5-b]pyridine]
EC50 [1]: 0.781 nM
IC50 [2]: 13.7 nM
Conc (nM) of Max. activity [3]: 30 nM

Source: US10280166B2, “2-(1H-indazol-3-yl)-3H-imidazo[4,5-B]pyridine and therapeutic uses thereof” (Samumed, LLC, priority 2014, dated 2019)
